Target: T1, SIRT1 (Homo sapiens, UniProt Q96EB6)
T1 sequence (Q96EB6 1-747): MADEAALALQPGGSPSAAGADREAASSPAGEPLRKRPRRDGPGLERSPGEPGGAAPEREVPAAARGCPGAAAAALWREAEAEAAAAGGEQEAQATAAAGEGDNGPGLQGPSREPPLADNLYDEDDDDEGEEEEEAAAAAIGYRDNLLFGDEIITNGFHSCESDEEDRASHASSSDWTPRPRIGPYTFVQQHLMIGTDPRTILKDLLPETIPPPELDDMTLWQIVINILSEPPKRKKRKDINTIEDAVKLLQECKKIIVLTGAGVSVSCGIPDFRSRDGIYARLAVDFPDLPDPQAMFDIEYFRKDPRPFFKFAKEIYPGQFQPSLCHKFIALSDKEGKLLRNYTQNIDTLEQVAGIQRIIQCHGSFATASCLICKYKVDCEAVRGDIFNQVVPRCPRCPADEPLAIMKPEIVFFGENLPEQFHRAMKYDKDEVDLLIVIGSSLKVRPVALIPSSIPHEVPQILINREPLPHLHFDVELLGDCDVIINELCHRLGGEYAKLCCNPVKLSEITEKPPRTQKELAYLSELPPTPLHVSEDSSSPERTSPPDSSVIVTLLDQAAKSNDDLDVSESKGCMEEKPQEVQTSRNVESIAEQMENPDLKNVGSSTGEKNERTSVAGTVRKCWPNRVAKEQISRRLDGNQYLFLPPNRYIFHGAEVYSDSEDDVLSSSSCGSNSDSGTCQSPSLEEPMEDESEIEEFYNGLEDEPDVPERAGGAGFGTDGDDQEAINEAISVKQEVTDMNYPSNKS
Test: Mass spectrometry based assay to identify modulators (activators) of SIRT1 activity
Format: biochemical
Settings: 0.5 μM peptide substrate, 120 μM βNAD+, 10 nM SIRT1, 25 minutes at 25° C.; for EC1.5: SIRT1 activation
Description: A mass spectrometry based assay was used to identify modulators of SIRT1 activity. The mass spectrometry based assay utilizes a peptide having 20 amino acid residues as follows: Ac-EE-K(biotin)-GQSTSSHSK(Ac)NleSTEG-K(5TMR)-EE-NH2 (SEQ ID NO: 1) wherein K(Ac) is an acetylated lysine residue and Nle is a norleucine. The peptide is labeled with the fluorophore 5TMR (excitation 540 nm/emission 580 nm) at the C-terminus. The sequence of the peptide substrate is based on p53 with several modifications. In addition, the methionine residue naturally present in the sequence was replaced with the norleucine because the methionine may be susceptible to oxidation during synthesis and purification.
The mass spectrometry assay is conducted as follows: 0.5 μM peptide substrate and 120 μM βNAD^+ is incubated with 10 nM SIRT1 for 25 minutes at 25° C. in a reaction buffer (50 mM Tris-acetate pH 8, 137 mM NaCl, 2.7 mM KCl, 1 mM MgCl2, 5 mM DTT, 0.05% BSA). Test compounds may be added to the reaction as described above. […] After the 25 minute incubation with SIRT1, 10 μL of 10% formic acid is added to stop the reaction. Reactions are sealed and frozen for later mass spec analysis. Determination of the mass of the substrate peptide allows for precise determination of the degree of acetylation (i.e. starting material) as compared to deacetylated peptide (product).
A control for inhibition of sirtuin activity is conducted by adding 1 μL of 500 mM nicotinamide as a negative control at the start of the reaction (e.g., permits determination of maximum sirtuin inhibition). A control for activation of sirtuin activity is conducted using 10 nM of sirtuin protein, with 1 μL of DMSO in place of compound, to determine the amount of deacetylation of the substrate at a given timepoint within the linear range of the assay. This timepoint is the same as that used for test compounds and, within the linear range, the endpoint represents a change in velocity.
For the above assay, SIRT1 protein was expressed and purified as follows. […] The protein was expressed by induction with 1 mM IPTG as an N-terminal His-tag fusion protein at 18° C. overnight and harvested at 30,000×g. Cells were lysed with lysozyme in lysis buffer (50 mM Tris-HCl, 2 mM Tris[2-carboxyethyl]phosphine (TCEP), 10 μM ZnCl2, 200 mM NaCl) and further treated with sonication for 10 min for complete lysis. The protein was purified over a Ni-NTA column (Amersham) and fractions containing pure protein were pooled, concentrated and run over a sizing column (Sephadex S200 26/60 global). The peak containing soluble protein was collected and run on an Ion-exchange column (MonoQ). Gradient elution (200 mM-500 mM NaCl) yielded pure protein. This protein was concentrated and dialyzed against dialysis buffer (20 mM Tris-HCl, 2 mM TCEP) overnight. The protein was aliquoted and frozen at −80° C. until further use.
Sirtuin modulating compounds that activated SIRT1 were identified using the assay described above and are shown below in Table 1. The EC1.5 values for the activating compounds are represented by A (EC1.5≦1 uM), B (EC1.5>1 and ≦10 uM), or C (EC1.5>10 uM). The percent maximum fold activation is represented by A (Fold activation≧300%), B (Fold Activation≧150% and <300%), or C (Fold Activation<150%).

| FOLD ACT. (percent maximum fold activation) | EC1.5 | Structure (SMILES) |
| --- | --- | --- |
| A (Fold activation≧300%) | A (EC1.5≦1 uM) | CC(C)N1CCN(Cc2sc(-c3ccccc3)nc2C(=O)Nc2ccccc2-c2nc3cccnc3s2)CC1 [Compound 9, 5-((4-isopropylpiperazin-1-yl)methyl)-2-phenyl-N-(2-(thiazolo[5,4-b]pyridin-2-yl)phenyl)thiazole-4-carboxamide] |
| B (Fold Activation≧150% and <300%) | A (EC1.5≦1 uM) | COCCCc1sc(-c2ccccc2)nc1C(=O)Nc1ccccc1-c1nc2cc(CN3CCCC3)cnc2s1 [Compound 4, 5-(3-methoxypropyl)-2-phenyl-N-(2-(6-(pyrrolidin-1-ylmethyl)thiazolo[5,4-b]pyridin-2-yl)phenyl)thiazole-4-carboxamide] |
| B (Fold Activation≧150% and <300%) | A (EC1.5≦1 uM) | Cc1oc(-c2ccccc2)nc1C(=O)Nc1ccccc1-c1nc2cc(CN3CCOCC3)cnc2s1 [Compound 16, 5-methyl-N-(2-(6-(morpholinomethyl)thiazolo[5,4-b]pyridin-2-yl)phenyl)-2-phenyloxazole-4-carboxamide] |
| A (Fold activation≧300%) | A (EC1.5≦1 uM) | COCCN1CCN(Cc2cnc3sc(-c4ccccc4NC(=O)c4nc(-c5ccccc5)cs4)nc3c2)CC1 [Compound 23, N-(2-(6-((4-(2-methoxyethyl)piperazin-1-yl)methyl)thiazolo[5,4-b]pyridin-2-yl)phenyl)-4-phenylthiazole-2-carboxamide] |
| A (Fold activation≧300%) | A (EC1.5≦1 uM) | O=C(Nc1ccccc1-c1nc2cccnc2s1)c1nc(-c2ccccc2)sc1CCCN1CCCC1 [Compound 8, 2-phenyl-5-(3-(pyrrolidin-1-yl)propyl)-N-(2-(thiazolo[5,4-b]pyridin-2-yl)phenyl)thiazole-4-carboxamide] |
| C (Fold Activation<150%) | C (EC1.5>10 uM) | O=C(Nc1ccccc1-c1nc2cccnc2s1)c1nc(-c2ccccc2)oc1CN1CCOCC1 [Compound 18, 5-(morpholinomethyl)-2-phenyl-N-(2-(thiazolo[5,4-b]pyridin-2-yl)phenyl)oxazole-4-carboxamide] |
| A (Fold activation≧300%) | A (EC1.5≦1 uM) | O=C(Nc1ccccc1-c1nc2cc(CN3CCOCC3)cnc2s1)c1csc(-c2ccccc2)n1 [Compound 2, N-(2-(6-(morpholinomethyl)thiazolo[5,4-b]pyridin-2-yl)phenyl)-2-phenylthiazole-4-carboxamide] |
| B (Fold Activation≧150% and <300%) | B (EC1.5>1 and ≦10 uM) | O=C(Nc1ccccc1-c1nc2cccnc2s1)c1nc(-c2ccccc2)oc1CN1CCCC1 [Compound 20, 2-phenyl-5-(pyrrolidin-1-ylmethyl)-N-(2-(thiazolo[5,4-b]pyridin-2-yl)phenyl)oxazole-4-carboxamide] |
| B (Fold Activation≧150% and <300%) | A (EC1.5≦1 uM) | COCCN1CCN(Cc2cnc3sc(-c4ccccc4NC(=O)c4nc(-c5ccccc5)oc4C(F)(F)F)nc3c2)CC1 [Compound 14, N-(2-(6-((4-(2-methoxyethyl)piperazin-1-yl)methyl)thiazolo[5,4-b]pyridin-2-yl)phenyl)-2-phenyl-5-(trifluoromethyl)oxazole-4-carboxamide] |
| B (Fold Activation≧150% and <300%) | A (EC1.5≦1 uM) | O=C(Nc1ccccc1-c1nc2cccnc2s1)c1nc(-c2ccccc2)sc1CCCN1CCOCC1 [Compound 13, 5-(3-morpholinopropyl)-2-phenyl-N-(2-(thiazolo[5,4-b]pyridin-2-yl)phenyl)thiazole-4-carboxamide] |
| C (Fold Activation<150%) | B (EC1.5>1 and ≦10 uM) | O=C(Nc1ccccc1-c1nc2cccnc2s1)c1nc(-c2ccccc2)sc1CN1CCCC1 [Compound 11, 2-phenyl-5-(pyrrolidin-1-ylmethyl)-N-(2-(thiazolo[5,4-b]pyridin-2-yl)phenyl)thiazole-4-carboxamide] |
| B (Fold Activation≧150% and <300%) | A (EC1.5≦1 uM) | COCCN1CCN(Cc2cnc3sc(-c4ccccc4NC(=O)c4nc(-c5ccccc5)oc4C)nc3c2)CC1 [Compound 15, N-(2-(6-((4-(2-methoxyethyl)piperazin-1-yl)methyl)thiazolo[5,4-b]pyridin-2-yl)phenyl)-5-methyl-2-phenyloxazole-4-carboxamide] |
| A (Fold activation≧300%) | A (EC1.5≦1 uM) | COCCN1CCN(Cc2sc(-c3ccccc3)nc2C(=O)Nc2ccccc2-c2nc3cccnc3s2)CC1 [Compound 12, 5-((4-(2-methoxyethyl)piperazin-1-yl)methyl)-2-phenyl-N-(2-(thiazolo[5,4-b]pyridin-2-yl)phenyl)thiazole-4-carboxamide] |
| A (Fold activation≧300%) | B (EC1.5>1 and ≦10 uM) | Cc1oc(-c2ccccc2)nc1C(=O)Nc1ccccc1-c1nc2cc(CN3CCCC3)cnc2s1 [Compound 17, 5-methyl-2-phenyl-N-(2-(6-(pyrrolidin-1-ylmethyl)thiazolo[5,4-b]pyridin-2-yl)phenyl)oxazole-4-carboxamide] |
| B (Fold Activation≧150% and <300%) | A (EC1.5≦1 uM) | O=C(Nc1ccccc1-c1nc2cc(CN3CCOCC3)cnc2s1)c1nc(-c2ccccc2)cs1 [Compound 24, N-(2-(6-(morpholinomethyl)thiazolo[5,4-b]pyridin-2-yl)phenyl)-4-phenylthiazole-2-carboxamide] |
| B (Fold Activation≧150% and <300%) | B (EC1.5>1 and ≦10 uM) | COCCCc1sc(-c2ccccc2)nc1C(=O)Nc1ccccc1-c1nc2cccnc2s1 [Compound 6, 5-(3-methoxypropyl)-2-phenyl-N-(2-(thiazolo[5,4-b]pyridin-2-yl)phenyl)thiazole-4-carboxamide] |
| A (Fold activation≧300%) | A (EC1.5≦1 uM) | COCCN1CCN(Cc2cnc3sc(-c4ccccc4NC(=O)c4csc(-c5ccccc5)n4)nc3c2)CC1 [Compound 1, N-(2-(6-((4-(2-methoxyethyl)piperazin-1-yl)methyl)thiazolo[5,4-b]pyridin-2-yl)phenyl)-2-phenylthiazole-4-carboxamide] |
| C (Fold Activation<150%) | C (EC1.5>10 uM) | CC(C)(C)OC(=O)N1CCN(Cc2oc(-c3ccccc3)nc2C(=O)Nc2ccccc2-c2nc3cccnc3s2)CC1 [Compound 21, tert-butyl 4-((2-phenyl-4-(2-(thiazolo[5,4-b]pyridin-2-yl)phenylcarbamoyl)oxazol-5-yl)methyl)piperazine-1-carboxylate] |
